The subject of series [1] is lung inflammation upon intranasal crystals. Put plainly: Exogenous uric acid crystals-induced lung inflammation and remodeling in mice. In kind it is in vivo. On the procedure:
(§1) Bleomycin sulfate (200-300 μg or 10-15 mg/kg) from Bellon Laboratories (Montrouge, France) in saline, uric acid or allopurinol crystals (100-1000 μg or 5-50 mg/kg) in saline or saline alone are given through the airways by nasal instillation in a volume of 40 μt, under light ketamine-xylasine anaesthesia. The number of cells, chemokines, cytokines and TIMP-1 in the bronchoalveolar space and in the lung were evaluated as described (3). Allopurinol (Sigma-Aldrich) was injected at 500 μg or 25 mg/kg subcutaneously in 0.1-ml sterile NaCl, uricase (Fasturtec, Sanofi Synthelabo) given at 4 μg or 0.2 mg/kg by nasal instillation in 40 μt, at the time of bleomycin administration, at 6 and 9 h. In some experiments, the IL-1Ra (Anakinra, Amgen) was injected at 200 μg or 10 mg/kg subcutaneously in 0.1-ml sterile NaCl, at the time of MSU crystals administration, at 2 and 4 h.
Uric acid or allopurinol crystals were obtained by dissolving 1.68 mg of powder in 0.01 M NaOH preheated to 70° C. and added as required to maintain pH between 7.1 and 7.2. The solution was filtered and incubated at room temperature under slowly and continuously agitation, until crystals have formed. Crystals were washed twice with ethanol 100%, dried, autoclaved and kept sterile. The weight of dry crystals was determined under sterile conditions, crystals are resuspended in PBS by sonication and examined under phase microscopy.
(§2) Bleomycin sulfate (10 mg/kg) from Bellon Laboratories, uric acid or allopurinol crystals (5-50 mg/kg) in saline or vehicle alone were administered by intranasal instillation under light ketamine-xylasine anesthesia, and BAL and lung tissue assayed after 6 h (for uric acid crystal) or 24 h (for bleomycin) for markers of inflammation including cell recruitment and in particular neutrophil influx, chemokine and cytokine levels including KC, IL-6 and IL-1β and 14 days later for markers of tissue remodeling such as gelatinases MMP9 and MMP2 and their inhibitor TIMP-1. […] IL-1Ra (Anakinra, Amgen) was injected at 10 mg/kg subcutaneously.
(§3) After incision of the trachea, a plastic cannula was inserted and airspaces were washed using […] of PBS solution, heated to 37° C. The rib cage was then gently massaged to enable maximum cell collection. The fluid was collected by careful aspiration. […] The samples collected were dispatched in 2 fractions: the first one (1 ml corresponding to the 2 first lavages) was used for mediator measurement and the second one for the cell determination (4 ml). The first fraction was centrifuged (600 g for 10 min) and supernatant was fractionated and kept at −80° C. until mediator determination. The cell pellet was then resuspended in 0.4 ml PBS and, pooled with the second fraction and maintained at 4° C. until cell determination.
(§4) Total cell count was determined in BAL fluid using a particle counter (Z2 Coulter, Beckman Coulter). Differential cell counts were performed on cytospin preparations (Cytospin 3, Thermo Shandon) after staining with 4 min May-Grünwald stain (MG-1L, Sigma chemical, Saint Louis, USA) and 8 min in 95% Giemsa stain (GS-500, Sigma chemical, Saint Louis, USA). Differential cell counts were made on 100 cells using standard morphological criteria.
(§5) IL-1β, KC, IL-6 and TIMP-1 levels in BAL fluid or lung homogenate were determined using ELISA assay kits according to manufacturer's instructions (Mouse DuoSet, R&D system, Minneapolis, USA).

The test system of series [2] is bleomycin-induced lung inflammation. The series is described as follows: Bleomycin-induced acute lung inflammation in mice (24 h). Particulars: for Uric acid levels in lung: allopurinol 25 mg/kg s.c. or uricase 0.2 mg/kg i.p. or i.n. at 0, 6 and 9 h; for Neutrophil recruitment in BALF / IL-1β production in lung: allopurinol 25 mg/kg s.c.; for Neutrophil recruitment in BALF: uricase 0.2 mg/kg (0, 6, 9 h) or z-YVAD-fmk 10 mg/kg i.p. (0, 4, 8 h); for Bleomycin-induced (acute) inflammation, overall: 24 h after BLM i.n., treated vs vehicle; for Efficacy, repeated administrations versus higher doses: dose optimisation; for KC production in lung / TIMP-1 production in lung / IL-1β production in lung: lung homogenates 24 h after BLM 10 mg/kg i.n.; for KC production in lung / TIMP-1 production in lung: allopurinol 25 mg/kg s.c. or z-YVAD-fmk 10 mg/kg i.p.; for IL-1β production in lung: uricase 0.2 mg/kg or z-YVAD-fmk 10 mg/kg i.p. In kind it is in vivo. How it is done: as §1, §2, §3
After BAL was performed, the whole lung removed and placed inside a microtube (Lysing matrix D, Q Bio Gene, Illkrich, France) with 1 ml of PBS, total lung tissue extract was prepared using a Fastprep® system (FP120, Q Bio Gene, Illkrich, France), the extract was then centrifuged and the supernatant stored at −80° C. before mediator measurement, MPO or collagen assay with Sircol Collagen Assay (France Biochem Division, France).
as §4, §5
Uric acid concentration was determined in bronchoalveolar lavages and lung homogenates using Amplex® Red Uric Acid/Uricase Assay Kit (Molecular Probe, Eugene). Briefly, uricase catalyzes the conversion of uric acid to allantoin, hydrogen peroxide (H2O2) and carbon dioxide. In the presence of horseradish peroxidase (HRP), H2O2 reacts stoichiometrically with Amplex Red reagent to generate the red-fluorescent oxidation product, resorufin, measured spectrophotometrically.

Series [3] concerns bleomycin-induced repair and fibrosis. The series is described as follows: Bleomycin-induced late inflammation, repair and fibrosis in mice (day 8/14). Particulars: for Lung fibrotic score (fibrosis with thickening of alveolar septae and inflammation, semi-quantitative) / Alveolar wall destruction, collagen deposition and lung fibrosis on lung sections / Pro-MMP-9 and active MMP-2 gelatinase activities in BALF (zymography) / Pulmonary alpha-I collagen mRNA content: day 14 after BLM 5 mg/kg i.n.; for Lung fibrotic score (fibrosis with thickening of alveolar septae and inflammation, semi-quantitative): Ashcroft score, two observers, vs B6 mice; for Alveolar wall destruction, collagen deposition and lung fibrosis on lung sections: CAB staining; for Pro-MMP-9 and active MMP-2 gelatinase activities in BALF (zymography): allopurinol 15 mg/kg s.c. or uricase 0.2 mg/kg i.p.; for Pulmonary alpha-I collagen mRNA content: real time quantitative PCR. In kind it is in vivo. On the procedure:
Mice were injected at day 0 with allopurinol (15 mg/kg, s.c.), uricase (0.2 mg/kg, i.p.) or saline, at 0, 6 and 9 h after BLM instillation (5 mg/kg, i.n.) and every second days during 8 or 14 days to evaluate remodeling and fibrosis. (A) Late inflammation measured as lymphocytes and neutrophils in the BALF at day 8. […] (D) Alpha1 (I) collagen I mRNA in lung was analyzed by real time quantitative polymerase chain reaction (PCR) amplification after uricase or allopurinol treatment 14 days after BLM administration. […] Chromotrope Aniline Blue (CAB) staining, 20× and 200× magnification. (F) The lesions induced by bleomycin were assessed semi-quantitatively by two pathologists as described (see Materials and methods). […] Results are expressed as mean lung fibrotic score±SD. Data represent mean values±SD from 3 independent experiments (n=6 mice per group).
as §2, §5
MMP-2 and MMP-9 levels were determined by gelatin zymography. Briefly, non-reduced supernatant samples of BAL fluid (15 μl) and standards (161-0305, Bio-Rad, Hercule, USA) were loaded onto 7% polyacrylamide gels (wt/vol) incorporating 0.1% (wt/vol) gelatin substrate. The MMP in the gelatinolytic bands were evaluated using as references recombinant murine Pro-MMP-9 (100 Kd) and recombinant murine Pro-MMP-2 (72 Kd). Proteins were subjected to electrophoresis at 20-30 mA for 3 h. The gel was then washed twice in 2.5% Triton (vol/vol), rinsed 3 times quickly with distillated water, and placed 3 times for 20 min in distillated water. Each different wash was performed under gentle stirring. Gels were incubated overnight at 37° C. in 50 mM Tris buffer (containing 5 mM CaCl2 and 2 μM ZnCL2). […] Only these MMP were quantified.
Quantification of alpha-I collagen was described previously (26). Briefly, frozen lung samples were ground to a fine powder, and homogenized in 2 ml of Trizol reagent (In vitrogen Life technology, Paisley, UK). After vigorous shaking, chloroform was added and the samples were centrifuged at 12,000 g for 20 min. Total RNA was precipitated with isopropanol and dissolved in RNAse-free water. RNAs were reverse-transcribed into cDNA using SuperScript™^II (Invitrogen Life technologies, Paisley, UK). Real-time quantitative PCR was performed by fluorescent dye SYBR Green methodology, using SYBR Green PCR Master Mix (Applied Biosystems) and the ABI Prism 7000 apparatus (perkin-Elmer, Foster city, CA, USA).
After BAL and lung perfusion, the large lobe was fixed in 4% buffered formaldehyde for standard microscopic analysis. 3-μm sections were stained with Hematoxylin and Eosin (H&E) or Chromotrope Aniline Blue (CAB) as described previously (3). The severity of the morphological changes (infiltration by neutrophils and mononuclear cells, destruction and thickening of the alveolar septae and fibrosis) were assessed semi-quantitatively using a numeric fibrotic scale (Ashcroft score) (27).

The subject of series [4] is bleomycin-induced lung inflammation. The following applies: IL-1 receptor antagonist; published data (ref. 3), FIG. 1; cited from earlier work.
[5] abbreviates: 24 h after BLM 10 mg/kg i.n., vs vehicle.
Where [6] appears, read: crystals 15 mg/kg i.n., kinetics.

“Also recorded” adds a separate entry of the source.

In the case of `Oc1ncnc2[nH]ncc12` [allopurinol crystals, allopurinol], in series [1] (6 h after crystals instillation 15 mg/kg i.n.), the “Neutrophil recruitment into the BALF” value is reported as “only little neutrophil recruitment”.
`Oc1ncnc2[nH]ncc12` [allopurinol]: the “Total cell counts in BALF” value in series [2] (24 h after BLM 10 mg/kg i.n., allopurinol 25 mg/kg s.c. at 0, 6 and 9 h, vs vehicle) is reported as “reduced”. Also, in series [2] (setting [5]), the “Uric acid levels in lung” value is given as “prevented the increase; also recorded: prevented uric acid increases” and the “Neutrophil recruitment in BALF” value was “reduced”. The “Bleomycin-induced (acute) inflammation, overall” value in series [2] was “greatly inhibited”. Moreover, the “IL-1β, KC and TIMP-1 in the BALF” value in series [2] (after BLM, allopurinol treatment, data not shown) is given as “diminished”. Also, in series [2] (data not shown), the “Efficacy, repeated administrations versus higher doses” value is recorded as “repeated administrations were more effective than higher doses”. In addition, in series [2] (vs vehicle), the “KC production in lung” value is “diminished”, the “TIMP-1 production in lung” value is recorded as “diminished” and the “IL-1β production in lung” value is “diminished”. The “KC production in lung” value in series [2] (vs vehicle, listed as Allopurinol) was “reduced”. Moreover, the “Late lymphocyte and neutrophil recruitment in the BALF” value in series [3] (day 8 after BLM 5 mg/kg i.n., allopurinol 15 mg/kg s.c. at 0, 6, 9 h and every second day) is “reduced”. Further, in series [3] (day 8 after BLM 5 mg/kg i.n., allopurinol 15 mg/kg s.c., BALF data not shown), the “Late production of TIMP-1 in lung homogenates and BALF” value is on record as “inhibited”. In addition, in series [3], the “Lung fibrotic score (fibrosis with thickening of alveolar septae and inflammation, semi-quantitative)” value is listed as “significantly reduced”; the “Alveolar wall destruction, collagen deposition and lung fibrosis on lung sections” value is reported as “significantly reduced”; the “Pro-MMP-9 and active MMP-2 gelatinase activities in BALF (zymography)” value was “significantly reduced and less”; the “Pulmonary alpha-I collagen mRNA content” value is “inhibited”.
For the molecule `O=c1[nH]c(=O)c2[nH]c(=O)[nH]c2[nH]1` [uric acid crystals, uric acid], in series [1] (setting [6]), the “Time at which inflammation was resolved” value turned out to be 14 days and the “Time of maximum of inflammation (cell recruitment in BALF)” value is on record as 6 h. For the same molecule, in series [1] (day 14 after crystals, data not shown), the “Pulmonary TIMP-1 at day 14” value is listed as “returned to basal levels”. The “Cell recruitment in BALF (macrophages, neutrophils)” value in series [1] (intranasal crystals, dose response) is given as “dose-dependent cell recruitment”. Further, in series [1] (lung homogenates after i.n. increasing doses of crystals), the “Pulmonary TIMP-1” value is listed as “induced pulmonary TIMP-1 expression; also recorded: dose-dependently induced”.
Consider “Anakinra: IL-1 receptor antagonist, IL-1Ra (Anakinra, Amgen)”, for which the “Inflammatory response to uric acid crystals (neutrophil influx in BAL)” value in series [1] (6 h after UA crystals 15 mg/kg i.n., anakinra 10 mg/kg) is recorded as “drastically reduced”. The “Bleomycin-induced lung inflammation, overall” value in series [4] is “attenuated”.
Turning to z-YVAD-fmk, the “Neutrophil recruitment in BALF” value in series [2] (setting [5]) was “reduced”. For the same molecule, the “Bleomycin-induced (acute) inflammation, overall” value in series [2] is recorded as “reduced”. In series [2] (vs vehicle), the “KC production in lung” value was “reduced”, the “TIMP-1 production in lung” value is recorded as “reduced” and the “IL-1β production in lung” value is reported as “reduced”.

B1: uricase: recombinant enzyme uricase (Fasturtec, Sanofi Synthelabo), degrades uric acid into soluble allantoin (protein, UniProt Q00511 2-302, looked up)
Uricase: SAVKAARYGKDNVRVYKVHKDEKTGVQTVYEMTVCVLLEGEIETSYTKADNSVIVATDSIKNTIYITAKQNPVTPPELFGSILGTHFIEKYNHIHAAHVNIVCHRWTRMDIDGKPHPHSFIRDSEEKRNVQVDVVEGKGIDIKSSLSGLTVLKSTNSQFWGFLRDEYTTLKETWDRILSTDVDATWQWKNFSGLQEVRSHVPKFDATWATAREVTLKTFAEDNSASVQATMYKMAEQILARQQLIETVEYSLPNKHYFEIDLSWHKGLQNTGKNAEVFAPQSDPNGLIKCTVGRSSLKSKL
Regarding B1, in series [2] (setting [5]), the “Uric acid levels in lung” value was “reduced” and the “Neutrophil recruitment in BALF” value is “reduced”. Besides, the “Efficacy, repeated administrations versus higher doses” value in series [2] (data not shown) is on record as “repeated administrations were more effective than higher doses”. In addition, the “IL-1β production in lung” value in series [2] (vs vehicle) was “reduced”. In series [3], the “Lung fibrotic score (fibrosis with thickening of alveolar septae and inflammation, semi-quantitative)” value is given as “significantly reduced”; the “Alveolar wall destruction, collagen deposition and lung fibrosis on lung sections” value is reported as “significantly reduced”; the “Pro-MMP-9 and active MMP-2 gelatinase activities in BALF (zymography)” value is “significantly reduced and less”; the “Pulmonary alpha-I collagen mRNA content” value was “inhibited”.

(Values after US8569017B2, “Method for the preventing and/or treating IL-1 beta lung pathology in mammals by administering a uric acid reducing compound” (Centre National de la Recheche Scientifique (CNRS), priority 2008, dated 2013).)
